Legend:
Format in all cases: in vivo
[1] = system: barnyardgrass (Echinochloa crus-galli); test: Test A preemergence, barnyardgrass; details: Preemergence; for Plant response rating, Barnyardgrass: 0 to 100 scale (0 no effect, 100 complete control)
Procedure, shortened: (§1)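 Compounds in non-phytotoxic solvent with surfactant. Soil: loam/sand. Preemergence via directed soil spray after seeding; postemergence on seedlings 2–10 cm, one- to two-leaf.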

kochia (Bassia scoparia) [2] = test: Test A preemergence, kochia; details: Preemergence; for Plant response rating, Kochia: 0 to 100 scale (0 no effect, 100 complete control); for Kochia plant response rating: visual injury on 0 to 100 scale (0 no effect, 100 complete control), approximately 10 days
Procedure, shortened: as §1

[3] = system: ragweed (common ragweed, Ambrosia artemisiifolia); test: Test A preemergence, ragweed; details: Preemergence; for Plant response rating, Ragweed: 0 to 100 scale (0 no effect, 100 complete control); for Ragweed plant response rating: visual injury on 0 to 100 scale (0 no effect, 100 complete control), approximately 10 days
Procedure, shortened: as §1

[4] = system: Ryegrass, Italian (Italian ryegrass, Lolium multiflorum); test: Test A preemergence, Ryegrass, Italian; details: Preemergence; for Plant response rating, Ryegrass, Italian: 0 to 100 scale (0 no effect, 100 complete control); for Ryegrass, Italian plant response rating: visual injury on 0 to 100 scale (0 no effect, 100 complete control), approximately 10 days
Procedure, shortened: as §1

[5] = system: Foxtail, Giant (giant foxtail, Setaria faberi); test: Test A preemergence, Foxtail, Giant; details: Preemergence; for Plant response rating, Foxtail, Giant: 0 to 100 scale (0 no effect, 100 complete control); for Foxtail, Giant plant response rating: visual injury on 0 to 100 scale (0 no effect, 100 complete control), approximately 10 days
Procedure, shortened: as §1

[6] = system: pigweed (Amaranthus retroflexus); test: Test A preemergence, pigweed; details: for Plant response rating, Pigweed: 0 to 100 scale (0 no effect, 100 complete control); for Pigweed plant response rating: visual injury on 0 to 100 scale (0 no effect, 100 complete control), approximately 10 days
Excerpt: Seeds of plant species selected from barnyardgrass (Echinochloa crus-galli), kochia (Bassia scoparia), ragweed (common ragweed, Ambrosia artemisiifolia), Ryegrass, Italian (Italian ryegrass, Lolium multiflorum), Foxtail, Giant (giant foxtail, Setaria faberi), and pigweed (Amaranthus retroflexus) were planted into a blend of loam soil and sand and treated preemergence with a directed soil spray using test chemicals formulated in a non-phytotoxic solvent mixture which included a surfactant. At the same time, plants selected from these weed species and also wheat (Triticum aestivum), corn (Zea mays), blackgrass (Alopecurus myosuroides), and galium (catchweed bedstraw, Galium aparine) were planted in pots containing the same blend of loam soil and sand and treated with postemergence applications of test chemicals formulated in the same manner. Plants ranged in height from 2 to 10 cm and were in the one- to two-leaf stage for the postemergence treatment. […] A dash (-) response means no test result.

kochia (Bassia scoparia) [7] = test: Test A postemergence, kochia; details: Postemergence, 0 to 100 scale (0 no effect, 100 complete control); for Plant response rating, Kochia: 125 g ai/ha; for Kochia plant response rating: 500 g ai/ha, visual injury vs untreated controls after approx. 10 days
Procedure, shortened: as §1

[8] = system: ragweed (common ragweed, Ambrosia artemisiifolia); test: Test A postemergence, ragweed; details: Postemergence, 0 to 100 scale (0 no effect, 100 complete control); for Plant response rating, Ragweed: 125 g ai/ha; for Ragweed plant response rating: 500 g ai/ha, visual injury vs untreated controls after approx. 10 days
Procedure, shortened: as §1

[9] = system: Ryegrass, Italian (Italian ryegrass, Lolium multiflorum); test: Test A postemergence, Ryegrass, Italian; details: Postemergence, 0 to 100 scale (0 no effect, 100 complete control); for Plant response rating, Ryegrass, Italian: 125 g ai/ha; for Ryegrass, Italian plant response rating: 500 g ai/ha, visual injury vs untreated controls after approx. 10 days
Procedure, shortened: as §1

[10] = system: Foxtail, Giant (giant foxtail, Setaria faberi); test: Test A postemergence, Foxtail, Giant; details: Postemergence, 0 to 100 scale (0 no effect, 100 complete control); for Plant response rating, Foxtail, Giant: 125 g ai/ha; for Foxtail, Giant plant response rating: 500 g ai/ha, visual injury vs untreated controls after approx. 10 days
Procedure, shortened: as §1

[11] = system: pigweed (Amaranthus retroflexus); test: Test A postemergence, pigweed; details: Postemergence, 0 to 100 scale (0 no effect, 100 complete control); for Plant response rating, Pigweed: 125 g ai/ha; for Pigweed plant response rating: 500 g ai/ha, visual injury vs untreated controls after approx. 10 days
Procedure, shortened: as §1

[12] = system: wheat (Triticum aestivum); test: Test A postemergence, wheat; details: Postemergence, 0 to 100 scale (0 no effect, 100 complete control); for Plant response rating, Wheat: 125 g ai/ha; for Wheat plant response rating: 500 g ai/ha, visual injury vs untreated controls after approx. 10 days
Procedure, shortened: (§2)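 Preemergence: seeded pots of loam plus sand received a directed soil spray. Postemergence: seedlings at one to two leaves, 2 to 10 cm high, were oversprayed. Each compound was formulated in a non-phytotoxic solvent mix that included a surfactant.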

corn (Zea mays) = test: Test A postemergence, corn; details: Postemergence, 0 to 100 scale (0 no effect, 100 complete control); for Plant response rating, Corn: 125 g ai/ha; for Corn plant response rating: 500 g ai/ha, visual injury vs untreated controls after approx. 10 days
Procedure, shortened: as §1

[13] = system: blackgrass (Alopecurus myosuroides); test: Test A postemergence, blackgrass; details: Postemergence, 0 to 100 scale (0 no effect, 100 complete control); for Plant response rating, Blackgrass: 125 g ai/ha; for Blackgrass plant response rating: 500 g ai/ha, visual injury vs untreated controls after approx. 10 days
Procedure, shortened: as §1

[14] = system: galium (catchweed bedstraw, Galium aparine); test: Test A postemergence, galium; details: Postemergence, 0 to 100 scale (0 no effect, 100 complete control); for Plant response rating, Galium: 125 g ai/ha; for Galium plant response rating: 500 g ai/ha, visual injury vs untreated controls after approx. 10 days
Procedure, shortened: as §2

[15] = 125 g ai/ha, visual injury, approx. 10 days

| SMILES | Plant response rating, Barnyardgrass [1, 15] | Plant response rating, Barnyardgrass ([1]; 500 g ai/ha) | Plant response rating, Kochia (kochia (Bassia scoparia) [2]; [15]) | Plant response rating, Ragweed [3, 15] | Plant response rating, Ryegrass, Italian [4, 15] | Plant response rating, Foxtail, Giant [5, 15] | Plant response rating, Pigweed [6, 15] | Plant response rating, Kochia (kochia (Bassia scoparia) [7]) | Kochia plant response rating (kochia (Bassia scoparia) [7]) | Plant response rating, Ragweed [8] | Ragweed plant response rating [8] | Plant response rating, Ryegrass, Italian [9] | Ryegrass, Italian plant response rating [9] | Plant response rating, Foxtail, Giant [10] | Foxtail, Giant plant response rating [10] | Pigweed plant response rating [11] | Wheat plant response rating [12] | Corn plant response rating (corn (Zea mays)) | Blackgrass plant response rating [13] | Galium plant response rating [14] | other results |
| --- | --- | --- | --- | --- | --- | --- | --- | --- | --- | --- | --- | --- | --- | --- | --- | --- | --- | --- | --- | --- | --- |
| Cc1cc(C)c(C2=NOC(C)(CCl)C2)cc1NS(=O)(=O)C(F)(F)F (stereo not drawn) [Compound 226] | 90 | 100 | 40 | 30 | 90 | 90 | 80 | 10 | 70 | 30 | 90 | 30 | 60 | 20 | 60 | 80 | 60 | 70 | 50 | 80 | Kochia plant response rating (kochia (Bassia scoparia) [2]; 500 g ai/ha): 90; Ragweed plant response rating ([3]; 500 g ai/ha): 90; Ryegrass, Italian plant response rating ([4]; 500 g ai/ha): 100; Foxtail, Giant plant response rating ([5]; 500 g ai/ha): 100; Pigweed plant response rating ([6]; 500 g ai/ha): 100; Plant response rating, Pigweed [11]: 30; Plant response rating, Wheat [12]: 0; Plant response rating, Corn (corn (Zea mays)): 0; Plant response rating, Blackgrass [13]: 20; Plant response rating, Galium [14]: 60 |
| Cc1cc(C)c(N(S(=O)(=O)C(F)(F)F)S(=O)(=O)C(F)(F)F)cc1C1=NOC2(CCCCC2)C1 [Compound 198] | 80 | 100 | 60 | 70 | 60 | 100 | 70 | 20 | 60 | 20 | 80 | 30 | 40 | 0 | 30 | 70 | 40 | 20 | 0 | 90 | Plant response rating, Kochia (kochia (Bassia scoparia) [2]; 500 g ai/ha): 80; Plant response rating, Ragweed ([3]; 500 g ai/ha): 80; Plant response rating, Ryegrass, Italian ([4]; 500 g ai/ha): 90; Plant response rating, Foxtail, Giant ([5]; 500 g ai/ha): 100; Plant response rating, Pigweed ([6]; 500 g ai/ha): 100; Plant response rating, Pigweed [11]: 50; Plant response rating, Wheat [12]: 20; Plant response rating, Corn (corn (Zea mays)): 20; Plant response rating, Blackgrass [13]: 10; Plant response rating, Galium [14]: 70 |
| Cc1cc(Cl)c(NS(=O)(=O)C(F)(F)F)cc1C(=O)N1CCC(Cl)CC1 [Compound 224] | 70 | 100 | 0 | 50 | 50 | 90 | 100 | 50 | 70 | 50 | 90 | 30 | 60 | 30 | 70 | 100 | 70 | 60 | 40 | 90 | Plant response rating, Kochia (kochia (Bassia scoparia) [2]; 500 g ai/ha): 90; Plant response rating, Ragweed ([3]; 500 g ai/ha): 80; Plant response rating, Ryegrass, Italian ([4]; 500 g ai/ha): 100; Plant response rating, Foxtail, Giant ([5]; 500 g ai/ha): 100; Plant response rating, Pigweed ([6]; 500 g ai/ha): 100; Plant response rating, Pigweed [11]: 60; Plant response rating, Wheat [12]: 30; Plant response rating, Corn (corn (Zea mays)): 10; Plant response rating, Blackgrass [13]: 0; Plant response rating, Galium [14]: 90 |
| Cc1cc(C)c(N(S(=O)(=O)C(F)(F)F)S(=O)(=O)C(F)(F)F)cc1-c1cc(Cl)nn(C)c1=O [Compound 74] | – | 100 | – | – | – | – | – | – | 90 | – | 30 | – | 70 | – | 80 | 90 | 70 | 10 | 50 | 90 | Barnyardgrass plant response rating ([1]; 125 g ai/ha, visual injury on 0 to 100 scale (0 no effect, 100 complete control), approximately 10 days): 90; Kochia plant response rating (kochia (Bassia scoparia) [2]; 125 g ai/ha): 70; Plant response rating, Kochia (kochia (Bassia scoparia) [2]; 500 g ai/ha): 100; Ragweed plant response rating ([3]; 125 g ai/ha): 70; Plant response rating, Ragweed ([3]; 500 g ai/ha): 90; Ryegrass, Italian plant response rating ([4]; 125 g ai/ha): 80; Plant response rating, Ryegrass, Italian ([4]; 500 g ai/ha): 100; Foxtail, Giant plant response rating ([5]; 125 g ai/ha): 100; Plant response rating, Foxtail, Giant ([5]; 500 g ai/ha): 100; Pigweed plant response rating ([6]; 125 g ai/ha): 60; Plant response rating, Pigweed ([6]; 500 g ai/ha): 100; Plant response rating, Kochia (kochia (Bassia scoparia) [7]; visual injury approx. 10 days): 30; Plant response rating, Ragweed ([8]; visual injury approx. 10 days): 0; Plant response rating, Ryegrass, Italian ([9]; visual injury approx. 10 days): 20; Plant response rating, Foxtail, Giant ([10]; visual injury approx. 10 days): 40; Plant response rating, Pigweed ([11]; visual injury approx. 10 days): 80; Plant response rating, Wheat ([12]; visual injury approx. 10 days): 60; Plant response rating, Corn (corn (Zea mays); visual injury approx. 10 days): 0; Plant response rating, Blackgrass ([13]; visual injury approx. 10 days): 40; Plant response rating, Galium ([14]; visual injury approx. 10 days): 50 |
